Measurements published in patent US5492910A, “Retrocarbamate protease inhibitors” (Bristol-Myers Squibb Co., priority 1994, dated 1996).

Key:
HIV protease = target: T1, HIV protease (Human immunodeficiency virus type 1 group M subtype B, UniProt P04585); test: HIV Protease Assay; assay type: biochemical; settings: 10 μM inhibitor, 4% DMSO, 450 μM substrate, pH 5.5, 30 minutes at 37° C.
T1 construct: purified protease
Procedure: An HIV protease standard assay was performed in a 60 μl reaction medium containing 50 mM sodium acetate, pH 5.5, 100 μg/ml bovine serum, 450 μM substrate (H2 N-Val-Ser-Gin-Asn-( β-naphthyl-alanine)-Pro-Val-Ile-OH), and purified protease. The reaction medium was incubated for 30 minutes at 37° C., quenched by the addition of 140 μl 5% H3 PO4, then analyzed by reverse phase HPLC using UV220 detection. In a typical control assay, 7% of the substrate was hydrolyzed. The retrocarbamate protease inhibitors of the present invention, listed in the following Table 1, were then employed in the assay, for which purpose they were prepared as a […] solution in DMSO then diluted to 30 μM with 50 mM sodium acetate/bovine serum albumen. This working stock was then diluted three-fold into the protease reaction medium, for a final concentration of 10 μM inhibitor and 4% DMSO.

HIV (CEM Cells) = test: Cell Culture Anti-HIV Activity (formazan cell viability of HIV-infected CEM-SS cells); assay type: cell-based; settings: Human immunodeficiency virus 1, CCRF-CEM, 144 h; CEM-SS cells infected with RF strain of HIV, multiplicity of infection 0.04, 6 days at 37° C.; concentration raising formazan production to 50% of uninfected cells
Procedure: The antiviral activity of the retrocarbamate protease inhibitors of the present invention was evaluated by a microculture method which determines the increase in cell viability of an infected culture when a drug is added. The assay depends on the metabolic reduction of tetrazolium reagent by viable cells to yield a soluble colored formazan product. The assay was performed as follows: suspensions of CEM--SS cells (5000/well) were infected with the RF strain of HIV at a multiplicity of infection at 0.04 in a 96-well plate. The compounds of the present invention listed in the following Table 1, serially diluted in half-log fashion, were added to the infected and uninfected control cells. Untreated (infected and uninfected) cells were included as controls. Following incubation for 6 days at 37° C., viable cells in each well were quantitated by the visible light absorbance at 450 nm. The IC50 was calculated as the concentration of drug that increased the formazan production in virally infected cells to 50% of that produced by uninfected cells in the absence of drug.

| inhibition at 10 µM (HIV protease) [%] | SMILES | IC50 (HIV (CEM Cells)) [nM] |
| --- | --- | --- |
| 98 | CC(C)(C)NC(=O)O[C@@H](Cc1ccccc1)[C@H](O)CNC[C@@H](O)[C@H](Cc1ccccc1)NC(=O)OC(C)(C)C [Example 1, [1S-[1R*,2S*(2S*,3R*)]]-[3-[[3-[[[(1,1-Dimethylethyl)amino]carbonyl]oxy]-2-hydroxy-4-phenylbutyl]amino]-2-hydroxy-1-(phenylmethyl)-propyl]carbamic acid, 1,1-dimethyl ester] | 460 |
| 90 | CC(C)(C)NC(=O)O[C@@H](Cc1ccccc1)[C@H](O)CNC[C@@H](O)[C@H](Cc1ccc(OCC(=O)N2CCOCC2)cc1)NC(=O)OC(C)(C)C [Example 2, [1S-[1R*,2S* (2S*,3R*)]]-[3-[[3-[[[(1,1-Dimethylethyl)amino]carbonyl]oxy]-2-hydroxy-4-phenylbutyl]amino]-2-hydroxy-1-[[4-[2-(morpholinyl)-2-oxoethoxy]phenyl]methyl]propyl]carbamic acid, 1,1-dimethylethyl ester] | 200 |
| 98 | CC(C)(C)NC(=O)O[C@@H](Cc1ccccc1)[C@H](O)CNC[C@@H](O)[C@H](Cc1ccccc1)NC(=O)[C@](C)(O)C(C)(C)C [Example 3, [1S-[1R*, 2S*[2S*, 3R* (S*)]]]-(1,1-Dimethylethyl)carbamic acid, 3-[[3-[(2-hydroxy-2,3,3-trimethyl-1-oxobutyl)amino]-2-hydroxy-4-phenylbutyl]amino]-2-hydroxy-1-(phenylmethyl)propyl ester] | 100 |
